Measured values: patent publication US9241941B2, “Methods for treatment of lymphomas with mutations in cell cycle genes” (priority 2012, dated 2016)

How the values were obtained:
[1] = tested on: DoHH2, Su-DHL6, Su-DHL-16, and Ly8 cells; assay: Cell cycle assay in human lymphoma cell lines; assay type: cell-based
Protocol: Cell culture, cell cycle and viability assays. Lymphoma cell lines DoHH2, Ly-8, Su-DHL-6, Su-DHL-16, Su-DHL-8 and Su-DHL-10 were maintained in RPMI 1640 with 10% fetal bovine serum, 1% L-Glutamine and 1% penicillin/streptomycin. Human lymphoma cell lines treated with PD-0332991 and Obatoclax were analyzed for cell viability and cell cycle assays. Briefly, cells were seed at 5×10^5 per mL and they were treated with PD-0332991 and/or ABT-737 and/or Obatoclax. After 24 h of treatment cell viability was assessed using CellTiter-Glo reagent (Promega). Cell cycle assay based on uptake of DNA staining dye using Cell Cycle Reagent assays (cat. 4700-0169 from Guava Technologies, Millipore) was performed following to manufacturer instructions.

[2] = tested on: RB phosphorylation (Ser 780); assay: Immunoblot for RB phosphorylation in treated lymphoma cells; assay type: cell-based, human; conditions: DoHH2, Su-DHL6, Su-DHL-16, Ly8 cells treated with PD-0332991
Protocol: Western blot analysis. Immunoblots were performed from whole cell lysates or tissue samples as described (Steidl et al., Nature 471:377-381 (2011)). Briefly, 30 μg of protein/sample were resolved on SDS-PAGE gels and transferred to Immobilon-P-membranes (Millipore). Antibodies were against Rb (Cell Signaling cat #9309), Phospho-Rb S780 (Cell Signaling cat #3590), Phospho-Rb S795 (Cell Signaling cat #7986), CDK4 (Cell Signaling cat #2906), CyclinD3 (Cell Signaling cat #2936), Cyclin D1 (Cell Signaling cat #2926), Cyclin D2 (Cell Signaling cat #2924) p16 (Santa Cruz Biotechnology cat # sc 1207), Caspase 3 (Cell Signaling cat #9662) Tubulin (1:5000; Sigma, B-5-1-2). Enhanced chemiluminescence was used for detection (ECL, Amersham).

xenografted DoHH2 tumors = assay: DoHH2 xenograft treatment study; assay type: in vivo, NOD/SCID mice; conditions: for course of tumors after the treatment course / durability of response / tumor growth during the treatment course: PD 150 mg/kg p.o., ABT 50 mg/kg i.v., alternate days, days 1-14
Protocol: Xenografts and treatment studies. Xenograft mice were generated as described (Schatz et al., J Exp Med 208:1799-1807 (2011)); briefly, s.c. injection of 5 Mio DoHH2 or SU-DHL-8 human lymphoma cells mixed with matrigel (BD Bioscience, 354230) into the flanks of NOD/SCID (NOD.CB17-Prkdc^scid/J) mice. […] The control animals were treated with 50 mmol/L sodium lactate (pH4), PTD solution and 5% of Dextrose in water solution respectively. Tumors were weighed and volumes were measured twice weekly.
The translocation t(14;18) is the cytogenetic hallmark of FL and promotes lymphoma cell survival by activating the anti-apoptotic BCL2 protein. BH3 mimetic drugs like ABT-737 block BCL2 function by inserting into the BH3-binding groove of anti-apoptotic BCL2 proteins (Oltersdorf et al., Nature 435:677-681 (2005)).

vavBcl2/CDK4 lymphoma = assay: Treatment of primary murine vavBcl2/CDK4 lymphomas in vivo; conditions: lymphocyte counts
vavBcl2/c-MYC lymphomas = assay: Treatment of primary murine vavBcl2/c-MYC lymphomas in vivo
Protocol: Generation of mice. The vavP Bcl2 mouse model of FL (Lowe et al., Nature 432:307-315 (2004)) was adapted to adoptive transfer of retrovirally transduced HPCs^1. Data were analyzed in Kaplan-Meier format using the log-rank (Mantel-Cox) test for statistical significance. H&E, Ki67, TUNEL, P-RB, and surface marker analysis were as in (Staudt, N Engl J Med 356:741-742 (2007)).
Most FL cell lines are derived from transformed FLs and are carry the hallmark translocation t(14;18). These include DoHH2, Su-DHL-6, Su-DHL-16 and Ly 8 cells. These lines also have high levels of CDK4, CDK6, and phosphorylated RB (S780 and S795) (FIG. 10A) and DoHH2 cells carry a homozygous p16 deletion (Gronbaek et al., Leukemia 14:1727-1735 (2000)). To examine the effect of targeted therapies, the inventors first treated DoHH2, Su-DHL6, Su-DHL-16, and Ly8 cells with increasing doses of PD-0332991. […] Further, knockdown of either CDK4 or CDK6 alone was not sufficient for cell cycle arrest indicating functional compensation between these homologous RB kinases and the requirement to block both (FIG. 10I/J). Given the limitations of transformed FL-derived lines, the inventors also tested PD-0332991 against primary murine vavBcl2 induced lymphomas in vivo.

[3] = tested on: cell lines that carry the translocation t(14;18) (DoHH2, Su-DHL-6, Su-DHL-16, Ly8); assay: Viability / apoptosis of human lymphoma lines after in vitro treatment; assay type: cell-based; conditions: for induction of apoptosis / cell death in vitro, single agent: FL-derived cell lines, 1 μM; for selectivity for cell lines carrying translocation t(14;18): panel of human lymphoma lines, viability after 24 h
Protocol: Cell culture, cell cycle and viability assays. Lymphoma cell lines DoHH2, Ly-8, Su-DHL-6, Su-DHL-16, Su-DHL-8 and Su-DHL-10 were maintained in RPMI 1640 with 10% fetal bovine serum, 1% L-Glutamine and 1% penicillin/streptomycin. […] Briefly, cells were seed at 5×10^5 per mL and they were treated with PD-0332991 and/or ABT-737 and/or Obatoclax. After 24 h of treatment cell viability was assessed using CellTiter-Glo reagent (Promega).

SMILES | cell cycle arrest after RB knockdown ([1]; DoHH2 cells expressing RB shRNA, PD-0332991 1 μM) | growth and cell cycle profile ([1]; increasing doses of PD-0332991, 24 h, all four lines) | RB phosphorylation in cells [2] | course of tumors after the treatment course / durability of response (xenografted DoHH2 tumors) | tumor growth during the treatment course (xenografted DoHH2 tumors) | RB phosphorylation (Ser 780) in tumors in vivo (xenografted DoHH2 tumors; immunoblot on lysates of treated tumors) | proliferation by Ki67 in tumors in vivo (xenografted DoHH2 tumors; immunohistochemistry at end of treatment) | response of lymphoma bearing animals (vavBcl2/CDK4 lymphoma) | response of lymphoma bearing animals (vavBcl2/c-MYC lymphomas; histologically transformed vavBcl2/c-MYC lymphomas) | time by which all animals succumbed to disease (vavBcl2/c-MYC lymphomas; vav-Bcl2/Myc tumor bearing animals treated with PD-0332991) | induction of apoptosis / cell death in vitro, single agent [3] | selectivity for cell lines carrying translocation t(14;18) [3] | cell death in tumors in vivo (caspase cleavage, TUNEL) (xenografted DoHH2 tumors; tumors at end of treatment)
CC(=O)c1c(C)c2cnc(Nc3ccc(N4CCNCC4)cn3)nc2n(C2CCCC2)c1=O [PD-0332991] | knockdown of RB bypassed the cell cycle arrest | complete growth arrest and accumulation in the G1 phase | loss of RB phosphorylation | residual tumors rapidly expanded thereafter | somewhat restrained tumor growth | complete loss of RB phosphorylation (Ser 780) | slowed proliferation by Ki67 | induced responses | ineffective | ≤ 10 days |  |  | 
CN(C)CC[C@H](CSc1ccccc1)Nc1ccc(S(=O)(=O)NC(=O)c2ccc(N3CCN(Cc4ccccc4-c4ccc(Cl)cc4)CC3)cc2)cc1[N+](=O)[O-] [ABT-737] |  |  |  | residual tumors rapidly expanded thereafter | somewhat restrained tumor growth |  |  |  |  |  | powerfully induced apoptosis and caspase cleavage | selective activity against cell lines that carry the translocation t(14;18) | significant cell death
COC1=CC(c2cc3ccccc3[nH]2)=N/C1=C\c1[nH]c(C)cc1C [Obatoclax] |  |  |  |  |  |  |  |  |  |  | potently induced cell death | less selective for cells carrying the translocation t(14;18) | 
